Measurements from patent US20070280915A1, “Combination Therapies Employing A Composition Comprising A Hmg Coa Reductase Inhibitor And A Vitamin B6 Related Compound” (priority 2003, published 2007).
Read-outs that look alike come from different tables or passages of the source.

Tests used:
CYP2C19 = CYP2C19 (Homo sapiens, UniProt P33261); experiment: CYP2C19 inhibition assay (substrate CEC); settings: read-out: Pyridoxal 5′-phosphate IC50, 0.0169 to […] tested, listed as pyridoxal 5′-phosphate
Description: (§1) The CYP inhibition assays used microsomes (Supersomes®, Gentest Corp., Woburn, Mass.) prepared from insect cells, each expressing an individual CYP subtype (CYP1A2, CYP2A6, CYP2B6, CYP2C8, CYP2C9, CYP2C19, CYP2D6, CYP2E1 or CYP3A4) expressed from the corresponding human CYP cDNA using a baculovirus expression vector. The microsomes also incorporated supplemental cDNA-expressed human reductase and/or cytochrome b5, as these enzymes stimulate the activity of the CYPs, allowing for a reduction in the amount of enzyme required per reaction (Gentest Corp.). The assays monitored, via fluorescence detection, the formation of a fluorescent metabolite following incubation of the microsomes with a specific CYP substrate. […]
(§2) Eight inhibitor and test compound concentrations were tested using 3-fold serial dilutions. […] The amount of metabolic product formed was quantified by fluorescence detection in a fluorescence plate reader utilizing excitation and emission filters that had been optimized for the detection of each metabolite.
(§3) Data Analysis—The mean of the duplicate fluorescent signals in the presence and absence (vehicle control) of each compound was calculated and corrected for the background noise. […]

CYP2D6 = CYP2D6 (Homo sapiens, UniProt P10635); experiment: CYP2D6 inhibition assay (substrate AMMC); settings: 0.0169 to […] tested, na = concentration-dependent inhibition not observed
Description: as §1, §2, §3

CYP3A4 = CYP3A4 (Homo sapiens, UniProt P08684); experiment: CYP3A4 inhibition assay (substrates BFC and BQ)
Description: as §1, §2, §3

CYP2E1 = biological target: T1, CYP2E1 (Homo sapiens, UniProt P05181); experiment: CYP2E1 inhibition assay (substrate MFC); format: in vitro ADME; settings: 0.0169 to […] tested, na = concentration-dependent inhibition not observed
T1 construct: purchased Gentest Corp; host or cells: insect cells (baculovirus)
Procedure: All determinations were performed in duplicate.

CYP2C8 = biological target: T2, CYP2C8 (Homo sapiens, UniProt P10632); experiment: CYP2C8 inhibition assay (substrate DBF); settings: 0.0169 to […] tested, na = concentration-dependent inhibition not observed
T2 sequence (P10632 1-490): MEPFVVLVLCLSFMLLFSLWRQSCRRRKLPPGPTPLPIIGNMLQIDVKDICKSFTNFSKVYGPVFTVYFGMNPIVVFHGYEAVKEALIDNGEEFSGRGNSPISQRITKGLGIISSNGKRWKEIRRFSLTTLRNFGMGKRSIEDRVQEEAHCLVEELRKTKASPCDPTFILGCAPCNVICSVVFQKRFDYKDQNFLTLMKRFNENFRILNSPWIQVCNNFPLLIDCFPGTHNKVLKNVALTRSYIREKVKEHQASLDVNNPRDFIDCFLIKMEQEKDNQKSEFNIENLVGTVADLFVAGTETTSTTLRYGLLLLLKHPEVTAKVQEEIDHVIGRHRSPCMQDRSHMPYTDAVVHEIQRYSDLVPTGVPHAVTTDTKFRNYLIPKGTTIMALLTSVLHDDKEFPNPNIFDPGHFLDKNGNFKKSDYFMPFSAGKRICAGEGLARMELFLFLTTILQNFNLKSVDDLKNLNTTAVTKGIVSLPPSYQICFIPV
Description: as §1, §2, §3

Chain of CYP3A4 (P08684 whole entry): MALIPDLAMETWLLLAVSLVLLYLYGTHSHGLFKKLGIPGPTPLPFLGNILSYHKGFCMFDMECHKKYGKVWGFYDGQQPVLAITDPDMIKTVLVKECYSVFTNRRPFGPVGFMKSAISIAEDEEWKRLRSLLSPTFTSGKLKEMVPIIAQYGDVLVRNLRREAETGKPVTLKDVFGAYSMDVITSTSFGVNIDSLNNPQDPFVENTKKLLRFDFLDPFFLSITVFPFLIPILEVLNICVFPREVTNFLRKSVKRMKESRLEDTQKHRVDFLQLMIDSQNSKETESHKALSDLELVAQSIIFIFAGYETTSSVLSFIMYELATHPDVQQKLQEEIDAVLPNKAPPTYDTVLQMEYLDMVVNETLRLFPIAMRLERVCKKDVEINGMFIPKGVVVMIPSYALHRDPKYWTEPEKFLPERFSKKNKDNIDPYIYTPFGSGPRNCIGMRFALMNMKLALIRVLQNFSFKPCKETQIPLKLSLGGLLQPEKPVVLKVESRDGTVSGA
Chain of CYP2C19 (P33261 whole entry): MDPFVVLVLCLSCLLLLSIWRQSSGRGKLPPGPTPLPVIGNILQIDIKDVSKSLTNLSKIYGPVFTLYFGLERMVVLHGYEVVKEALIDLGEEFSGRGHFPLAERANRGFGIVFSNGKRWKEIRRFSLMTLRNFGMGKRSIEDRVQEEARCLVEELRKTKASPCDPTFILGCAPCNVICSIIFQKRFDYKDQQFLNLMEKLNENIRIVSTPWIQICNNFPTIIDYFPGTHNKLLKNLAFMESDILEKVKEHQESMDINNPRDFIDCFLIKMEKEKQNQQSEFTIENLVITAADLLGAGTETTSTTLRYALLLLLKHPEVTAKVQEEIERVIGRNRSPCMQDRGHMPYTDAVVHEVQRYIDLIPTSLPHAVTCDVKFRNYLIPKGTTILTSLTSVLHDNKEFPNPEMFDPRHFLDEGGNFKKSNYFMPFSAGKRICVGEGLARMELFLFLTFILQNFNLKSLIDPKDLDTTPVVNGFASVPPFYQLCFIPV
T1 sequence (P05181 whole entry): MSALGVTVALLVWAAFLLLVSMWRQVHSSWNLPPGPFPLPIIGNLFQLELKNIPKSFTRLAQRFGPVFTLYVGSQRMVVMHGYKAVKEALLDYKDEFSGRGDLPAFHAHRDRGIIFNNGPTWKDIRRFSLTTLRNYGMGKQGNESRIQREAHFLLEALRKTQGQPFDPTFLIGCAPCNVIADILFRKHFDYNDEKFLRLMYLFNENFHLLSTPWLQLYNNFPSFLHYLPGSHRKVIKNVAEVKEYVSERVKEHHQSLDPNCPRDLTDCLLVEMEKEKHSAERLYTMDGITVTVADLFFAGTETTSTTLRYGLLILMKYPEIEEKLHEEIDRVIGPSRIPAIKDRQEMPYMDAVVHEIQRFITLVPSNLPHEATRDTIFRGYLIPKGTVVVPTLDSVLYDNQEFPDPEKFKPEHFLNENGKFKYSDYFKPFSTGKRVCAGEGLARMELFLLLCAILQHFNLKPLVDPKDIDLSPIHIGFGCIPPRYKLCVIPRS
Chain of CYP2D6 (P10635 whole entry): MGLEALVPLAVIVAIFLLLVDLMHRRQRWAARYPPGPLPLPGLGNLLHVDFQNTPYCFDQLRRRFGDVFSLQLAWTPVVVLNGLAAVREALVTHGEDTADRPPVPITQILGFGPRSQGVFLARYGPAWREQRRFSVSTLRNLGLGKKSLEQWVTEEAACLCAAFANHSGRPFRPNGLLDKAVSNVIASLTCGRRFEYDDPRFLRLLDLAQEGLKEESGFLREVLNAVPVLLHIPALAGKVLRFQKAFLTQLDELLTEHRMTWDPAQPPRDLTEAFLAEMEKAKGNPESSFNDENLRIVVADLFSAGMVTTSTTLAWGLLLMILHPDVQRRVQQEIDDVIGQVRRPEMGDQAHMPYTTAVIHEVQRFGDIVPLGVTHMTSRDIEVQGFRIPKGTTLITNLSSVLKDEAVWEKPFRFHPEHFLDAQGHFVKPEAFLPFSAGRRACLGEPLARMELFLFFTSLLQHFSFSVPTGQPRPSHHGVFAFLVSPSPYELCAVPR

## Cc1ncc(COP(=O)(O)O)c(C=O)c1O [P5P, pyridoxal-5-phosphate]
CYP2C19
  IC50: ~33 µM
CYP2D6
  Pyridoxal 5′-phosphate IC50: did not inhibit
CYP3A4; read-out: Pyridoxal 5′-phosphate IC50, CYP3A4, substrate BQ, 0.0169 to […] tested
  IC50: > 37 µM
CYP3A4; read-out: Pyridoxal 5′-phosphate IC50 for CYP3A4, CYP3A4, substrate not given
  IC50: ≥ 37 µM
CYP2E1
  Pyridoxal 5′-phosphate IC50: did not inhibit
CYP2C8
  Pyridoxal 5′-phosphate IC50: did not inhibit
